Test results published in ChEMBL document CHEMBL1136427, “Unique spirocyclopiperazinium salt I: synthesis and structure-activity relationship of spirocyclopiperazinium salts as analgesics” (2003).

Experiments:
Format in all cases: functional
[1] = test system: Mus sp.; assay: Analgesic activity was evaluated in mice after s.c. administration of 10 mg/kg.; settings: sc
[2] = test system: Mus sp.; assay: Analgesic activity was evaluated in mice after s.c. administration of 20 mg/kg.; settings: for inhibition in vivo at 20 mg/kg: Mus sp., sc; for Inhibition: 20 mg/kg
[3] = test system: Mus sp.; assay: Sedative activity was evaluated in mice after s.c. administration of 20 mg/kg.; settings: for inhibition in vivo at 20 mg/kg: Mus sp., sc; for Inhibition: 20 mg/kg
[4] = test system: Mus sp.; assay: Sedative activity was evaluated in mice after s.c. administration of 10 mg/kg.; settings: sc

Structure (SMILES)	inhibition in vivo at 10 mg/kg [1]	inhibition in vivo at 20 mg/kg [2]	inhibition in vivo at 20 mg/kg [3]	inhibition in vivo at 10 mg/kg [4]	Inhibition [2]	Inhibition [3]
O=C(CCN1CC[N+]2(CCCC2)CC1)c1ccc(O)cc1	77%	100%	85%	–	–	–
C=C(C)CN1CC[N+]2(CCCC2)CC1	–	0%	0%	–	–	–
C=CCN1CC[N+]2(CCCC2)CC1	45%	100%	0%	0%	–	–
O=C(CCN1CC[N+]2(CCCC2)CC1)c1cccc(O)c1	–	14%	13%	–	–	–
O=[N+]([O-])c1ccc(/C=C/CN2CC[N+]3(CCCC3)CC2)cc1	–	24%	10%	–	–	–
O=C(CCN1CC[N+]2(CCCC2)CC1)c1ccsc1	–	12%	3%	–	–	–
O=C(CCN1CC[N+]2(CCCC2)CC1)c1ccoc1	–	15%	0%	–	–	–
c1ccc(OCCCCN2CC[N+]3(CCCC3)CC2)cc1	–	9%	4%	–	–	–
OC(CCl)CN1CC[N+]2(CCCC2)CC1.[Br-] (stereo in doubt; 3)	–	–	–	–	64%	57%
O=C1CCC(=O)N1CCCN1CC[N+]2(CCCC2)CC1	–	20%	10%	–	–	–
C(=C\c1ccccc1)/CN1CC[N+]2(CCCC2)CC1	–	0%	33%	–	–	–
Clc1ccccc1/C=C/CN1CC[N+]2(CCCC2)CC1	–	27%	59%	–	–	–
O=C(CCN1CC[N+]2(CCCC2)CC1)c1ccccc1	–	25%	11%	–	–	–
O=C(CCN1CC[N+]2(CCCC2)CC1)c1ccc([N+](=O)[O-])cc1	–	12%	35%	–	–	–
O=[N+]([O-])c1cccc(/C=C/CN2CC[N+]3(CCCC3)CC2)c1	–	32%	12%	–	–	–
Clc1ccc(/C=C/CN2CC[N+]3(CCCC3)CC2)cc1	–	19%	12%	–	–	–
CCN1CC[N+]2(CCCC2)CC1	–	0%	0%	–	–	–
OC(CCl)CN1CC[N+]2(CCCC2)CC1.[Br-] (stereo in doubt; 7a)	–	–	–	–	0%	0%
Clc1cccc(/C=C/CN2CC[N+]3(CCCC3)CC2)c1	–	42%	51%	–	–	–
O=C(CCN1CC[N+]2(CCCC2)CC1)c1cccc([N+](=O)[O-])c1	–	59%	0%	–	–	–
C1CC[N+]2(C1)CCN(CCC1OCCO1)CC2	–	36%	25%	–	–	–
OCCN1CC[N+]2(CCCC2)CC1	–	10%	0%	–	–	–
Cc1ccc(C(=O)CCN2CC[N+]3(CCCC3)CC2)cc1	–	25%	14%	–	–	–
